Source: publication PMC2386126, “The Mycobacterium tuberculosis Rv2540c DNA sequence encodes a bifunctional chorismate synthase” (BMC Biochemistry, 2008)

What was measured:
[1] = molecular target: T1, MtCS (chorismate synthase, aroF, Rv2540c) (Mycobacterium tuberculosis, UniProt P9WPY1); test: biochemical; format: binding; conditions: read-out: dissociation constant
T1 construct: gene aroC

[2] = system: NC(=O)C1=CN([C@@H]2O[C@H](COP(=O)(O)OP(=O)(O)OC[C@H]3O[C@@H](n4cnc5c(N)ncnc54)[C@H](O)[C@@H]3O)[C@@H](O)[C@H]2O)C=CC1; test: purified protein; conditions: apparent, holoenzyme preincubated with 40 μM FMNox, no EPSP, 50 mM Tris-HCl pH 7.8, 25°C

T1 sequence (P9WPY1 whole entry, looked up): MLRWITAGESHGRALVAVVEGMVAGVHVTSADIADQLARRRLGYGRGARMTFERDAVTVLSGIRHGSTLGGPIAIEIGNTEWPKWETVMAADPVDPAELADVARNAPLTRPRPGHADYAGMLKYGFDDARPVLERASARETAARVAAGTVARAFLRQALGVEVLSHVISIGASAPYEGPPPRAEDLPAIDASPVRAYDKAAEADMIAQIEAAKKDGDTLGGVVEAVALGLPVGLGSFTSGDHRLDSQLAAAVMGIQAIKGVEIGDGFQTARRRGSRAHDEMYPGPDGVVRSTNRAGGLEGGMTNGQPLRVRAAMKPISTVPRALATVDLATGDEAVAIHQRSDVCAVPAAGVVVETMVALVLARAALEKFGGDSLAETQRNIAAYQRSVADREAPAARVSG

Compound	Kd [1] [µM]	Km [2] [µM]
NC(=O)C1=CN([C@@H]2O[C@H](COP(=O)(O)OP(=O)(O)OC[C@H]3O[C@@H](n4cnc5c(N)ncnc54)[C@H](O)[C@@H]3O)[C@@H](O)[C@H]2O)C=CC1 [NADH]	156 ± 12	
MtCS (chorismate synthase, aroF, Rv2540c) (Mycobacterium tuberculosis H37Rv)		36 ± 4
